Reference: US20200054649A1, “SKELETAL MUSCLE HYPERTROPHY INDUCERS” (CYTOO, priority 2016, published 2020)
Where two headings read alike, the source gives them in different places.

Key:
[1] = test system: Myotubes from the healthy donor 3 atrophied with IL-1β, TNF-α or Myostatin; assay: MyoScreen atrophy rescue assay (IL-1β, TNF-α, myostatin as atrophy inducers); format: cell-based, human; set-up: key: +++: total rescue; ++: partial rescue; +: low rescue; details: nestorone 1 μM, corticosterone 3 μM, mifepristone 1 μM; for atrophy rescue, TNF-alpha: atrophy inducer TNF-α 2 ng/mL; for atrophy rescue, Myostatin: atrophy inducer myostatin 150 ng/mL
Method: (§1) Hypertrophy and Atrophy Rescue assays were performed using an in vitro fully automated human myotube model called MyoScreen (Cytoo, France). This model relies on a tight control of the microenvironment that guides the differentiation of human primary myoblasts. Myotubes formed on MyoScreen™ micropatterns present a high level of maturation together with a highly standardized morphology.
(§2) Human primary myoblasts from donors 1, 3 and Z were seeded in MyoScreen™ micropatterned 96-well plates (Cytoo, France), let them adhere for 24 h in growth medium, then run the differentiation in a low horse serum medium for at least 5 days.
(§3) At Day0, MyoScreen™ plates (Cytoo, France) containing micropatterns were pre-filled with 200 μl/well of growth medium and stored in the incubator at 37° C. Human primary myoblasts were detached from the flasks, count, and seeded into the plates with 15 000 cells per well in 100 μl of growth medium.
(§4) At Day 1, the growth medium was changed for a differentiation medium, 300 μl/well (DMEM with 0.1% horse serum) in which myoblasts started differentiating and forming myotubes.
(§5) At Day 2, the differentiation medium was changed. Then candidate compounds were diluted with differentiation medium and transferred into the plate. The final concentration of DMSO should be not higher than 0.1%. At least 6 wells were treated with the vehicle as a basal control, and 6 wells were treated with IGF-1 at 100 ng/ml as positive hypertrophy control.
For Atrophy Rescue assay, one hour after candidate compound addition, atrophy inducers were added at the following final concentration: 150 ng/mL of myostatin, 25 ng/mL of […] and 2 ng/mL of TNF-α.
(§6) At Day 6, cells were fixed with formalin 5% for 30 min at room temperature, then permeabilized with Triton X-100 at 0.1% in PBS for 15 min, and blocked with PBS+BSA 1% for 20 minutes. Myotubes were incubated with first antibody against Troponin T in blocking buffer for 1 h30, washed three times with PBS, incubated with secondary antibody and Hoescht (1/10 000) for 1 h30, and washed three times with PBS.
(§7) Images were acquired at 10× magnification with an Operetta High Content Imaging System. Image processing and analysis were performed with dedicated algorithms developed on the Acapella High Content Imaging Software (Perkin Elmer) by CYTOO. Eleven fields per well were acquired.
(§8) First, segmentation of myotubes and nuclei were done using respectively the Troponin T staining intensity and the Hoechst staining. One to two myotubes per micropattern were usually identified (a myotube is a troponin T staining area that includes at least 2 nuclei). The threshold of segmentation was set-up in order to avoid detecting the background noise and eliminate aberrant small myotube structures. At the end of this first step, specific readouts were calculated in the whole well, like the nuclei count and the fusion index (percentage of nuclei included in troponin T staining). Usually around 50 to 60 myotubes were detected per well in a control condition.
(§9) Then, an image clean-up step was performed on the Troponin T images in order to remove myotubes that touch the border of the image. The final valid myotubes were used to extract myotube morphology parameters including the myotube width and area, and the number of nuclei per myotube.
(§10) Nuclei Count, Fusion Index, Mean myotube Area and Number of nuclei per myotube have been validated as relevant and sensitive readouts of myotube differentiation as well as atrophic and hypertrophic induction.
Atrophy Rescue assays were performed in the presence of atrophy inducers, i.e. TNF-α, IL-1β and Myostatin. Each compound was tested in triplicate of wells at 1 μM for nestorone, 3 μM for corticostestrone and 1 μM for mifepristone.
Myotubes from the healthy donor 3 were atrophied using different inducers: inflammation cytokines IL-1β and TNF-α and SMAD pathway activator Myostatin. The ability of each compound to block the atrophy induced by these different atrophy inducers was determined.

[2] = test system: Human primary myoblasts (HSMM) from healthy Donor 1, myotubes; assay: MyoScreen hypertrophy assay, dose response, healthy Donor 1; format: cell-based; details: first dose response assay; for EC50: Homo sapiens, not defined precisely
Method: (§11) Healthy donor primary skeletal cells (Donor 1 and Donor 3) were Clonetics™ Human Skeletal Muscle Myoblasts (HSMM).
as §1, §2, §3, §4, §5, §6, §7, §8, §9, §10
(§12) Dose response assays were performed on three donors (Healthy Donors 3 and 1, DMD Donor Z): 8 doses of candidate compounds between 33 μM and 0.015 μM, 2 well replicates per dose.
(§13) Compounds of interest were tested several times in dose response, with triplicate of wells per dose. Results were normalized to the control condition (basal level), and plotted using GraphPadm Prism. The readout “nuclei count” allowed detecting any toxicity effect. The readouts “fusion index” and “myosin area” were used to determine the EC50 value using the GrapgPad Prism fitting solution. […]

[3] = test system: Myotubes from the healthy donor 3 atrophied with IL-1β, TNF-α or Myostatin; assay: MyoScreen atrophy rescue assay (IL-1β, TNF-α, myostatin as atrophy inducers); format: cell-based, human; set-up: key: +++: total rescue; ++: partial rescue; +: low rescue; details: atrophy inducer IL-1β 25 ng/mL, nestorone 1 μM, corticosterone 3 μM, mifepristone 1 μM
[4] = test system: Human primary myoblasts (HSMM) from healthy Donor 3, myotubes; assay: MyoScreen hypertrophy assay on human primary myoblasts/myotubes, healthy Donor 3; format: cell-based; details: for EC50 / activity at 10 µM: Homo sapiens
Method: as §11, §1, §2, §3, §4, §5, §6, §7, §8, §9, §10
A primary screening was run to identify hypertrophy compounds that increase the myotube differentiation and size. Candidate compounds were tested at 10 μM in monoplicate on Donor 3 cells.
A retest was run, by cherry picking (same compound batch as primary screening): each hit was tested in the same conditions as in the Primary Screening (Donor 3, 10 μM) in six well replicates.
Dose response assays were performed on three donors (Healthy Donors 3 and 1, DMD Donor Z): 8 doses of candidate compounds between 33 μM and 0.015 μM, 2 well replicates per dose. […]

[5] = test system: Human primary myoblasts from DMD (Duchenne muscular dystrophy) Donor Z, myotubes; assay: MyoScreen hypertrophy assay, dose response, DMD Donor Z; format: cell-based; details: for activity: additional dose response assay, Donor Z, Mifepristone at 300 nM, IGF-1 positive control; for DMD myotube size and differentiation / EC50 / % Activity: Donor Z (DMD); for DMD myotube size and differentiation: dose response; for EC50: Homo sapiens, not defined precisely; for EC50 / % Activity: first dose response assay
Method: In addition, cells from a DMD (Duchenne muscular dystrophy) donor were sourced (Donor Z) and used to confirm primary hits.
as §1, §2, §3, §4, §5, §6, §7, §8, §9, §10, §12, §13

[6] = first dose response assay, Donor 3, not defined precisely
[7] = second dose response assay, Donor 3, lower concentrations
[8] = Donor 3, compounds at 10 μM, monoplicate, % Activity = myotube fusion index (compound)*100/fusion index (basal control), IGF-1 at 100 ng/ml, read-out: Primary screening (% Activity)
[9] = Donor 3, compounds at 10 μM, six well replicates, % of basal control fusion index, IGF-1 at 100 ng/ml, read-out: Retest (% Activity)
[10] = first dose response assay, Donor 3, 33 μM to 0.015 μM

Compound	atrophy rescue, TNF-alpha [1]	atrophy rescue, Myostatin [1]	EC50 [2] [nM]	% Activity [2] [%]	atrophy rescue, IL-1 [3]	EC50 [4, 6] [nM]	EC50 [4, 7] [nM]	activity at 10 µM [4, 8] [%]	activity at 10 µM [4, 9] [%]	% Activity [4, 10] [%]	% Activity [4, 7] [%]	activity [5] [%]	DMD myotube size and differentiation [5]	EC50 [5] [nM]	% Activity [5] [%]	Primary screening (% Activity) ([4]; Donor 3, compounds at 10 μM, monoplicate, % Activity = myotube fusion index (compound)*100/fusion index (basal control), IGF-1 at 100 ng/ml) [%]	Retest (% Activity) ([4]; Donor 3, compounds at 10 μM, six well replicates, % of basal control fusion index, IGF-1 at 100 ng/ml) [%]
CC#C[C@]1(O)CC[C@H]2[C@@H]3CCC4=CC(=O)CCC4=C3[C@@H](c3ccc(N(C)C)cc3)C[C@@]21C [Mifepristone]	++	+++	~5	145	+++	~50	100	140	173	133	135	156					
C[C@]12C[C@H](O)[C@H]3[C@@H](CCC4=CC(=O)CC[C@@]43C)[C@@H]1CC[C@@H]2C(=O)CO [Corticosterone]	++	+++	~1000	134	++	~100	200	148	128	114	120		significant increase	~500	145		
CC(=O)O[C@]1(C(C)=O)CC[C@H]2[C@@H]3C=C(C)C4=CC(=O)CC[C@]4(C)[C@H]3CC[C@@]21C [Megestrol acetate]								133	125								
C=C1C[C@H]2[C@@H]3C=C(C)C4=CC(=O)CC[C@]4(C)[C@H]3CC[C@]2(C)[C@@]1(OC(C)=O)C(C)=O [Melengestrol acetate]								140	140								
C=C1C[C@H]2[C@@H]3CCC4=CC(=O)CC[C@@H]4[C@H]3CC[C@]2(C)[C@@]1(OC(C)=O)C(C)=O [Nestorone]	+	++	~100	130	++	~100	200	153	189	115	133		significant increase	~100	181		
CC(=O)[C@H]1CC[C@H]2[C@@H]3CCC4=CC(=O)CC[C@]4(C)[C@H]3CC[C@]12C [Progesterone]								137	114								
IGF-1: IGF-1 at 100 ng/ml as positive hypertrophy control	+++	+++		150	+++					150	150	200			250	210	190
